{
  "source": "patent US12478509B2",
  "about": "“Layered composite for scar treatment and prevention” (THE GOVERNMENT OF THE UNITED STATES AS REPRESENTED BY THE …, priority 2019, dated 2025)",
  "key": {"[1]": {"test_system": "IL-1β, IL-2, IL-6, IL-13, G-CSF, and MIP-1α", "experiment": "inflammatory cytokines"}, "mouse DPT wounds": {"test_system": "mouse DPT wounds", "experiment": "neutrophil infiltration in mouse DPT burn wounds", "format": "in vivo"}, "[2]": {"test_system": "human dermal fibroblasts (HDF)", "experiment": "human dermal fibroblast / myofibroblast studies", "format": "cell-based"}, "p38 MAPK": {"test_system": "p38 MAPK", "experiment": "p38 MAPK activation in TGF-β1 stimulated HDF", "format": "cell-based, human"}},
  "data": [
    {"smiles": "Cc1ccc(=O)n(-c2ccccc2)c1", "note": "[Pirfenidone, 5-methyl-1-phenyl-2-(1H)-pyridone]", "values": [
      {"measurement": "key inflammatory cytokines IL-1β, IL-2, IL-6, IL-13, G-CSF, and MIP-1α", "setting": "[1]", "result": "reduced"},
      {"measurement": "neutrophil infiltration", "setting": "mouse DPT wounds", "result": "decreased"},
      {"measurement": "HDF transdifferentiation to myofibroblasts", "setting": "[2]", "result": "inhibited"},
      {"measurement": "collagen deposition and fibrosis-related gene expression", "setting": "[2]", "result": "decreased"},
      {"measurement": "contractile machinery of activated dermal myofibroblasts", "setting": "[2]", "result": "weakened"},
      {"measurement": "p38 MAPK activation", "setting": "p38 MAPK", "result": "reduced"}
    ]}
  ]
}
